This experiment relates to PC12/HttN90Q103 cells. The experiment can be described thus: ATPlite assay, rescue of HttN90Q103-induced cell death. It is filed as cell-based, rat. From the text:
In this stable PC12 line (PC12/HttN90Q103), transcription of the Htt transgene is driven by an ecdysone-regulated promoter such that the expression of HttN90Q103 can be turned on or off by the addition or removal of the non-steroidal ecdysone analog tebufenozide (teb).
Using the engineered PC12/HttN90Q103 cell line together with Perkin Elmer's ATPlite™ assay kit or CellTiter-Blue™ assay, a high throughput assay to screen small molecules for their ability to prevent mutant Htt exon 1-induced cell death was developed and optimized.
The following formulas were used to calculate mutant Htt-induced cytotoxicity and test compound rescue: % killing=[(un-induced−induced-DMSO treated)/un-induced]×100 % rescue=[(drug treated−induced-DMSO treated)/(un-induced−induced-DMSO treated)]×100
For single-agent ranking, the assay was performed in 384-well plates to obtain duplicate dose response curves in 12-step dilutions with a dosing ratio f=2 over 3 orders of magnitude. […]
Day 1—Add Compounds 4 hours post-induction • 1) Remove compound plates from dessicator. • 2) Using the PlateMate, prepare dilution plate with 100 μL per well of the complete cell medium at room temperature in clear untreated 384-well plates. • 3) Using the MiniTrak, make compound dilution plates: 1 μL from each well of stock plates into 100 μL of media in the dilution plate for a 1:100 dilution (10× stock in media). • 4) Using the MiniTrak, add 4.5 μL of the diluted stock to each well of cells in assay plates. • 5) Make positive control solution: dilute 20 mM stock of BOC-D-FMK in media for a 10× stock. • 6) Manually add 4.5 μL positive control to C1-N1. • 7) Incubate plates at 37° C. for three days. • (for ranking combinations, steps 5 and 6 are omitted as there is positive control on the compound plates)
Day 4—Perform ATPlite™ Assay • 1) Take plates out of the incubator. • 2) Using the PlateMate, add 40 μL of ATPlite™ 1-step solution (Perkin Elmer) to each well of the assay plates. • 3) Wait ten minutes to allow plates to dark-adapt. • 4) Read luminescence intensity in Wallac plate reader using […]

[1] abbreviates: ATPlite, single agent, 250 nM tebufenozide induction.
Where [2] appears, read: ATPlite, single agent, sigmoidal fit of 12-step dose response, read-out: EC50.
The mark [3] stands for this setting: Rattus norvegicus, PC-12, ATPlite, single agent, 250 nM tebufenozide induction, read-out: Max Effect (% rescue).
Setting [4] is: Rattus norvegicus, PC-12, ATPlite, single agent, sigmoidal fit of 12-step dose response, read-out: EC50.
[5] abbreviates: Rattus norvegicus, PC-12, read-out: Max Effect (% rescue).

These results are taken from US20080044390A1, “Methods and compositions for the treatment of neurodegenerative disorders” (priority 2006, published 2008).

Like-named read-outs stand apart in the source and are kept apart here. *1 amine or outer side, *2 acyl side, *3 side chain or, on linkers, in order; H or OH if unused. Where a SMILES comes first, the peptide text is derived from it. [ ]: non-standard residue; d: D form. The star is where a group is joined. hPhe = N[CH](CCc1ccccc1)C(=O)O; Morpholide = C1CN(*)CCO1; CO = O=C([*:1])[*:2]; CH2F = FC*

In the case of `N[C@@H]1C[C@H]1c1ccccc1` (racemic) [Tranylcypromine], under setting [1], the “Max Effect (% rescue)” value was 16%. Further, under setting [2], the EC50 was 2.2 µM.
Turning to `CC1CNCCN1S(=O)(=O)c1cccc2cnccc12` (centres unmarked) [1-(5-isoquinolinesulfonyl)-2-methylpiperazine], the Emax under setting [3] is 28%. Also, the EC50 under setting [4] came to 15.5 µM.
Consider `OC[C@H]1O[C@@H](n2cnc3cc(Cl)c(Cl)cc32)[C@H](O)[C@@H]1O` [5,6-dichloro-1-β-D-ribofuranosylbenzimidazole], for which, where the note is “Rattus norvegicus, PC-12”, the EC50 came to 5.1 µM. The Emax under setting [5] is 26%.
`Nc1ncnc2c1c(I)cn2[C@@H]1C[C@H](N)[C@@H](O)[C@H]1O` [Agent A-134974, N^7-[(1′R,2′S,3′R,4′S)-2′,3′-dihydroxy-4′-aminocyclopentyl]-4-amino-5-iodopyrrolopyrimidine]: the “Max Effect (% rescue)” value under setting [1] is 22%. The 50% effective concentration (EC50) under setting [2] stood at 13.3 µM.
In the case of `O=C1Cc2c([nH]c3ccc([N+](=O)[O-])cc23)-c2ccccc2N1` [Alsterpaullone], the Emax under setting [3] was found to be 64%. Besides, the EC50 under setting [4] amounted to 1.8 µM.
For `CC(C)c1ccc2oc3nc(N)c(C(=O)O)cc3c(=O)c2c1` [Amlexanox], the EC50 (Rattus norvegicus, PC-12) turned out to be 5.7 µM. For the same compound, under setting [5], the Emax came to 18%.
For the compound `CCN(CC)Cc1cc(Nc2ccnc3cc(Cl)ccc23)ccc1O` [Amodiaquine], the Emax under setting [3] was found to be 62%. Moreover, the half-maximal effective concentration (EC50) under setting [4] worked out at 12.3 µM.
For `C[C@]12CCC(=O)C[C@@H]1CC[C@@H]1[C@@H]2CC[C@]2(C)[C@@H](O)CC[C@@H]12` [Androstanolone], the concentration for a half-maximal effect (EC50) (Rattus norvegicus, PC-12) was found to be 8 µM. Also, the Emax under setting [5] was found to be 15%.
Take `O=C(CF)C(CCc1ccccc1)NC(=O)C(Cc1ccccc1)NC(=O)N1CCOCC1` (centres unmarked) [BML-248, N-morpholineurea-phenylalanyl-homophenylalanylfluoromethyl ketone] ({Morpholide-CO}-Phe-[hPhe]-CH2F; configuration not given here): the “Max Effect (% rescue)” value under setting [1] came to 24%. For the same compound, the EC50 under setting [2] came out at 7.1 µM.
Turning to `O=C(NO)c1ccccc1` [Benzohydroxamic acid], under setting [3], the Emax was 15%. Moreover, the half-maximal effective concentration (EC50) under setting [4] is 6.9 µM.
For `CCCC(=O)Nc1ncnc2c1ncn2[C@@H]1O[C@@H]2COP(=O)(O)O[C@H]2[C@H]1OC(=O)CCC` [Bucladesine], the Emax under setting [3] stood at 18%. The EC50 under setting [4] was 19.6 µM.
For `COC(=O)CC(NC(=O)OC(C)(C)C)C(=O)CF` [Caspase inhibitor III (BOC-D-fmk)], the “% rescue” value (20 μM, positive control, 72 hours following tebufenozide induction) is “More than 50%”. Further, under setting [1], the “Max Effect (% rescue)” value was found to be 119%. Moreover, under setting [2], the concentration for a half-maximal effect (EC50) is 3.9 µM.
`CC1=C(O)C(=O)C=C2C1=CC=C1[C@@]2(C)CC[C@@]2(C)[C@@H]3C[C@](C)(C(=O)O)CC[C@]3(C)CC[C@]12C` [Celastrol]: the EC50 (Rattus norvegicus, PC-12) came to 0.3 µM. In addition, the Emax under setting [5] was determined as 19%.
As for `CCN(CC)CCCC(C)Nc1ccnc2cc(Cl)ccc12` (centres unmarked) [Chloroquine], the 50% effective concentration (EC50) (Rattus norvegicus, PC-12) stood at 9.7 µM.
With `N=C(N)c1ccc(/N=N/Nc2ccc(C(=N)N)cc2)cc1` [Diminazene], under setting [3], the Emax was determined as 35%. Moreover, under setting [4], the half-maximal effective concentration (EC50) turned out to be 5.6 µM.
Take `CCCC(CCC)C(=O)O` [Divalproex]: the Emax under setting [3] is 19%. Besides, the EC50 under setting [4] worked out at 15.2 µM.
For `O=S(=O)(c1cccc2cnccc12)N1CCCNCC1` [Fasudil], in that order: 26% and 9.9 µM.
For the compound `O=c1c(O)c(-c2ccc(O)c(O)c2)oc2cc(O)ccc12` [Fisetin], the Emax under setting [3] was 52%. Also, the EC50 under setting [4] was determined as 12.4 µM.
In the case of `C=C[C@@]1(C)CC(=O)[C@]2(O)[C@@]3(C)[C@@H](O)CCC(C)(C)[C@@H]3[C@H](O)[C@H](OC(C)=O)[C@@]2(C)O1` [Forskolin], under setting [3], the Emax came to 18%. Under setting [4], the EC50 stood at 0.2 µM.
As for `CCN(CCO)CCCC(C)Nc1ccnc2cc(Cl)ccc12` (centres unmarked) [Hydroxychloroquine], the Emax under setting [3] was 29%. In addition, under setting [4], the EC50 turned out to be 5.2 µM.
As to `NC(=O)NO` [Hydroxyurea], the Emax under setting [3] came to 22%. For the same compound, under setting [4], the EC50 amounted to 7.5 µM.
Take `O=C(Nc1cccc(C2=NCCN2)c1)Nc1cccc(C2=NCCN2)c1` [Imidocarb]: the Emax under setting [3] is 24%. The EC50 under setting [4] turned out to be 15.9 µM.
